Results taken from US9605017B2, “2′, 5′-dideoxy-5-fluorouridine derivatives having cytotoxic activity, a process for the manufacture thereof and application thereof” (ADAM MICKIEWICZ UNIVERSITY, priority 2014, dated 2017).
Converted amounts (≈) assume the structure as drawn. “And” between values parts separate entries of the source, which are not always exact repeats. Equal values may be shown once. Read-outs that look alike come from different tables or passages of the source.

Columns and labels:
KB (nasopharynx cancer) = assay: Cytotoxicity test with sulphorhodamine B, 72 h, KB line; details: read-out: Cytotoxic activity, IC50 KB (nasopharynx cancer)
Procedure: (§1) Cytotoxic activity tests were performed using the following cancer cell lines: MCF-7 (breast cancer), HeLa (cervical cancer) A549 (lung cancer) and KB (nasopharynx cancer) obtained from ECACC (European Collection of Cell Cultures).
(§2) Cytotoxicity tests were carried out using a standard procedure with sulphorhodamine B. They involved incubation of the cancer cell lines in the logarithmic growth phase for 72 hours with the compound tested and, subsequently, spectrophotometric determination of the degree of cell growth inhibition using adsorption of a dye (sulphorhodamine B) which binds cellular proteins.
(§3) Cells of the cell line tested in the logarithmic growth phase were seeded onto 24-well plates in a quantity of 20,000 cells/2 mL of the growth medium per well and, subsequently, incubated in an incubator at 37° C., in the 5% CO2 atmosphere for 24 hours.
(§4) Solutions of the test compounds were prepared in DMSO in the following concentration range: 0.05; 0.1; 0.5; 1; 5; 10; 50; 100; 500 μM.
(§5) The cells of the lines tested were treated with the solutions of the test compounds in a laminar-flow chamber which ensured sterile working conditions according to the following procedure: the first three wells were used as a control: they contained 20 μL of DMSO only; successive solutions of the test compound were added to subsequent wells (20 μL), starting with the lowest concentration (three wells for each concentration level). Subsequently, the plates were placed in an incubator for 72 hours.
(§6) After the end of incubation, the adhered cells were fixed by adding 500 μL of cold (4° C.) 50% trichloroacetic acid (TCA) and incubated at 4° C. for 1 hour. Subsequently, each well was rinsed with sterile water and dried. The operation was repeated five times. The fixed cells were stained for 30 minutes by adding 500 μL of 0.4% of a dye solution (sulphorhodamine B) dissolved in 1% acetic acid. Any unbound dye was removed by decanting it from the plate, and the cells were washed 4 times with 1% acetic acid. Subsequently, the plates were dried in air for approx. 5 minutes. Any unbound dye was dissolved by adding 1500 μL of 10 mM Tris-base buffer (trishydroxymethylaminomethane) to each well and shaken using an orbital shaker for 5 minutes. Subsequently, 200 μL of solution from each well was transferred to each of two wells on a new 96-well plate and absorption of the solutions was determined spectrophotometrically at a wavelength of 490-530 nm using a plate reader. Percentage inhibition of cell growth by the test compound was calculated assuming the absorption of the control solution as 100%.
(§7) Cytotoxicity tests for the other compounds and cell lines were performed following an identical procedure.
(§8) Depending on the type of the cell line, the following growth media were used: • the MCF-7 line was grown in Dulbecco's Modified Eagle's Medium (DME) from Sigma (cat. no. D5796) • the HeLa, A549 and KB lines were grown in RPMI-1640 Medium from Sigma (cat. no. R8758).
(§9) IC50 values, being concentration of a compound needed to obtain 50% inhibition of cell growth, were determined for all the derivatives tested.
(§10) To enable comparison, identical tests were performed using known cytotoxic agents: 5-fluoro-2′-deoxyuridine, 5-fluorouracil and 5′-azido-2′,5′-dideoxy-5-fluorouridine.
(§11) The values are average results of three independent determinations.

HeLa (cervical cancer) = assay: Cytotoxicity test with sulphorhodamine B, 72 h, HeLa line; details: for IC50: Homo sapiens, HeLa; for activity compared to 5FU, cervical cancer cells: relative to 5FU
Procedure: as §1, §2, §3, §4, §5, §6, §7, §8, §9, §10, §11

A549 (lung cancer) = assay: Cytotoxicity test with sulphorhodamine B, 72 h, A549 line; details: Homo sapiens
Procedure: as §1, §2, §3, §4, §5, §6, §7, §8, §9, §10, §11

MCF-7 (breast cancer) = assay: Cytotoxicity test with sulphorhodamine B, 72 h, MCF-7 line; details: for IC50: Homo sapiens; for higher activity than 5AddFU, breast cancer cells: relative to 5AddFU; for higher activity than 5FU, breast cancer cells: relative to 5FU; for higher activity than 5FdU, breast cancer cells: relative to 5FdU
Procedure: as §1, §2, §3, §4, §5, §6, §7, §8, §9, §10, §11

[1] = system: MCF-7, HeLa, A549 and KB cancer cell lines; assay: Cytotoxic activity tests, overall statement over the four cancer cell lines; details: in words
Procedure: as §1, §2, §9, §10

[2] = system: mouse tumour cells (S-180 line); details: at concentrations as high as 400 μM; cited from earlier work
[3] = 72 h, read-out: Cytotoxic activity, IC50 HeLa (cervical cancer)
[4] = read-out: Cytotoxic activity class, HeLa (cervical cancer)
[5] = A549, 72 h, read-out: Cytotoxic activity, IC50 A549 (lung cancer)
[6] = A549, read-out: Cytotoxic activity class, A549 (lung cancer)
[7] = MCF7, 72 h, read-out: Cytotoxic activity, IC50 MCF-7 line (breast cancer)
[8] = MCF7, read-out: Cytotoxic activity class, MCF-7 line (breast cancer)

Structure (SMILES) | IC50 (KB (nasopharynx cancer)) | IC50 (HeLa (cervical cancer); [3]) | IC50 (HeLa (cervical cancer); [4]) [µg/mL] | IC50 (A549 (lung cancer); [5]) | IC50 (A549 (lung cancer); [6]) [µg/mL] | IC50 (MCF-7 (breast cancer); [7]) | IC50 (MCF-7 (breast cancer); [8]) [µg/mL] | Cytotoxic activity, overall verbal grade [1] | Cytotoxic activity, overall verbal grade ([1]; listed as 5FdU) | Cytotoxic activity, overall verbal grade ([1]; listed as 5FU) | cell growth inhibition [2] [%] | Cytotoxic activity, overall verbal grade ([1]; listed as 5AddFU) | activity compared to 5FU, cervical cancer cells (HeLa (cervical cancer)) | higher activity than 5AddFU, breast cancer cells (MCF-7 (breast cancer)) [fold] | higher activity than 5FU, breast cancer cells (MCF-7 (breast cancer)) [fold] | higher activity than 5FdU, breast cancer cells (MCF-7 (breast cancer)) [fold]
O=c1[nH]c(=O)n([C@H]2C[C@H](O)[C@@H](CO)O2)cc1F [5-fluoro-2′-deoxyuridine, reference compound] | 3.37 µg/mL and 13.7 µM | 3.2 µg/mL and 13 µM | < 4 | 3.3 µg/mL and 13.4 µM | < 4 | 2.81 µg/mL and 11.4 µM | < 4 | medium-activity | Medium cytotoxic activity | – | – | – | – | – | – | –
O=c1[nH]cc(F)c(=O)[nH]1 [5-fluorouracil, reference compound] | 2.86 µg/mL and 22 µM | 2.73 µg/mL and 21 µM | < 4 | 2.78 µg/mL and 21.4 µM | < 4 | 2.37 µg/mL and 18.2 µM | < 4 | medium-activity | – | Medium cytotoxic activity | – | – | – | – | – | –
[N-]=[N+]=NC[C@H]1O[C@@H](n2cc(F)c(O)nc2=O)C[C@@H]1O [5′-azido-2′,5′-dideoxy-5-fluorouridine, reference compound] | 7 µg/mL and 25.8 µM | 7.8 µg/mL and 28.8 µM | 4 to 30 (≈ 14.7 to 111 µM) | 7 µg/mL and 25.8 µM | 4 to 30 (≈ 14.7 to 111 µM) | 7.4 µg/mL and 27.3 µM | 4 to 30 (≈ 14.7 to 111 µM) | – | – | – | 100 | Medium cytotoxic activity | – | – | – | –
O=c1[nH]c(=O)n(C2CC(O)C(Cn3cc(C4C[N@@]5CCC4C[C@H]5[C@H](O)c4ccnc5ccccc45)nn3)O2)cc1F (stereo partly shown) [CD5AFU, 5-Fluoro-1-(4-hydroxy-5-{4-[6-(hydroxy-quinolin-4-yl-methyl)-1-aza-bicyclo[2.2.2]oct-3-yl]-[1,2,3]triazol-1-ylmethyl}-tetrahydrofuran-2-yl)-1H-pyrimidine-2,4-dione] | 15 µg/mL and 26.6 µM | 13 µg/mL and 23.1 µM | 4 to 30 (≈ 7.1 to 53.2 µM) | 15.2 µg/mL and 27 µM | 4 to 30 (≈ 7.1 to 53.2 µM) | 11.4 µg/mL and 20.2 µM | 4 to 30 (≈ 7.1 to 53.2 µM) | – | – | – | – | – | – | – | – | –
O=c1[nH]c(=O)n(C2CC(O)C(Cn3cc(C4CN5CCC4C[C@@H]5[C@@H](O)c4ccnc5ccccc45)nn3)O2)cc1F (stereo partly shown) [CN5AFU, 5-Fluoro-1-(4-hydroxy-5-{4-[6-(hydroxy-quinolin-4-yl-methyl)-1-aza-bicyclo[2.2.2]oct-3-yl]-[1,2,3]triazol-1-ylmethyl}-tetrahydrofuran-2-yl)-1H-pyrimidine-2,4-dione] | 2.9 µg/mL and 5.15 µM | 3.1 µg/mL and 5.5 µM | < 4 | 3.1 µg/mL and 5.5 µM | < 4 | 2.8 µg/mL and 4.97 µM | < 4 | – | – | – | – | – | comparable activity | 3 | 1.4 | 1.6
C=CC1C[N@@]2CCC1C[C@H]2[C@H](OCc1cn(CC2OC(n3cc(F)c(=O)[nH]c3=O)CC2O)nn1)c1ccnc2ccccc12 (stereo partly shown) [PCD5AFU, 5-Fluoro-1-(4-hydroxy-5-{4-[quinolin-4-yl-(5-vinyl-1-aza-bicyclo[2.2.2]oct-2-yl)-methoxymethyl]-[1,2,3]triazol-1-ylmethyl}-tetrahydrofuran-2-yl)-1H-pyrimidine-2,4-dione] | 17.5 µg/mL and 29 µM | 18.8 µg/mL and 29.8 µM | 4 to 30 (≈ 6.63 to 49.7 µM) | 17.8 µg/mL and 29.5 µM | 4 to 30 (≈ 6.63 to 49.7 µM) | 11.8 µg/mL and 19.6 µM | 4 to 30 (≈ 6.63 to 49.7 µM) | – | – | – | – | – | – | – | – | –
C=CC1C[N@@]2CCC1C[C@@H]2[C@@H](OCc1cn(CC2OC(n3cc(F)c(=O)[nH]c3=O)CC2O)nn1)c1ccnc2ccccc12 (stereo partly shown) [PCN5AFU, 5-Fluoro-1-(4-hydroxy-5-{4-[quinolin-4-yl-(5-vinyl-1-aza-bicyclo[2.2.2]oct-2-yl)-methoxymethyl]-[1,2,3]triazol-1-ylmethyl}-tetrahydrofuran-2-yl)-1H-pyrimidine-2,4-dione] | 2.4 µg/mL and 3.98 µM | 2.7 µg/mL and 4.47 µM | < 4 | 2.7 µg/mL and 4.47 µM | < 4 | 2.4 µg/mL and 3.98 µM | < 4 | – | – | – | – | – | comparable activity | 3 | 1.4 | 1.6
C=CC1C[N@@]2CCC1C[C@@H]2[C@@H](OCc1cn(CC2OC(n3cc(F)c(=O)[nH]c3=O)CC2O)nn1)c1ccnc2ccc(OC)cc12 (stereo partly shown) [PQD5AFU, 5-Fluoro-1-(4-hydroxy-5-{4-[(6-methoxy-quinolin-4-yl)-(5-vinyl-1-aza-bicyclo[2.2.2]oct-2-yl)-methoxymethyl]-[1,2,3]triazol-1-ylmethyl}-tetrahydrofuran-2-yl)-1H-pyrimidine-2,4-dione] | 19.5 µg/mL and 30.8 µM | 19.1 µg/mL and 30.1 µM | 4 to 30 (≈ 6.31 to 47.3 µM) | 19.7 µg/mL and 31.1 µM | 4 to 30 (≈ 6.31 to 47.3 µM) | 16 µg/mL and 25.2 µM | 4 to 30 (≈ 6.31 to 47.3 µM) | – | – | – | – | – | – | – | – | –
C=CC1C[N@@]2CCC1C[C@H]2[C@H](OCc1cn(CC2OC(n3cc(F)c(=O)[nH]c3=O)CC2O)nn1)c1ccnc2ccc(OC)cc12 (stereo partly shown) [PQN5AFU, 5-Fluoro-1-(4-hydroxy-5-{4-[(6-methoxy-quinolin-4-yl)-(5-vinyl-1-aza-bicyclo[2.2.2]oct-2-yl)-methoxymethyl]-[1,2,3]triazol-1-ylmethyl}-tetrahydrofuran-2-yl)-1H-pyrimidine-2,4-dione] | 31 µg/mL and 48.9 µM | 29 µg/mL and 45.8 µM | 4 to 30 (≈ 6.31 to 47.3 µM) | 29.4 µg/mL and 46.4 µM | 4 to 30 (≈ 6.31 to 47.3 µM) | 27 µg/mL and 42.6 µM | 4 to 30 (≈ 6.31 to 47.3 µM) | – | – | – | – | – | – | – | – | –
COc1ccc2nccc([C@H](O)[C@H]3CC4CCN3CC4c3cn(CC4OC(n5cc(F)c(=O)[nH]c5=O)CC4O)nn3)c2c1 (stereo partly shown) [QD5AFU, 5-Fluoro-1-[4-hydroxy-5-(4-{6-[hydroxy-(6-methoxy-quinolin-4-yl)-methyl]-1-aza-bicyclo[2.2.2]oct-3-yl}-[1,2,3]triazol-1-ylmethyl)-tetrahydrofuran-2-yl]-1H-pyrimidine-2,4-dione] | 8.9 µg/mL and 15 µM | 7.3 µg/mL and 12.3 µM | 4 to 30 (≈ 6.74 to 50.5 µM) | 8 µg/mL and 13.5 µM | 4 to 30 (≈ 6.74 to 50.5 µM) | 6.1 µg/mL and 10.3 µM | 4 to 30 (≈ 6.74 to 50.5 µM) | – | – | – | – | – | – | – | – | –
COc1ccc2nccc([C@@H](O)[C@@H]3CC4CC[N@]3CC4c3cn(CC4OC(n5cc(F)c(=O)[nH]c5=O)CC4O)nn3)c2c1 (stereo partly shown) [QN5AFU, 5-Fluoro-1-[4-hydroxy-5-(4-{6-[hydroxy-(6-methoxy-quinolin-4-yl)-methyl]-1-aza-bicyclo[2.2.2]oct-3-yl}-[1,2,3]triazol-1-ylmethyl)-tetrahydrofuran-2-yl]-1H-pyrimidine-2,4-dione] | 12.6 µg/mL and 21.2 µM | 12 µg/mL and 20.2 µM | 4 to 30 (≈ 6.74 to 50.5 µM) | 16 µg/mL and 26.9 µM | 4 to 30 (≈ 6.74 to 50.5 µM) | 12 µg/mL and 20.2 µM | 4 to 30 (≈ 6.74 to 50.5 µM) | – | – | – | – | – | – | – | – | –
